Results as given in ChEMBL document CHEMBL1201862, “PubChem BioAssay data set” (2004).
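96-well plates; 48 h exposure; 5 concentrations. Endpoints by linear interpolation between flanking doses. Not reached: highest tested concentration assigned. GI50 = concentration required for 50% inhibition of growth.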 The source made the active and inactive calls. Rule as the data show it: active = GI50 up to about 1.1 µM and inactive = higher.

How the values were obtained:
Test in all cases: NCI anticancer screen, dose series, 48 h
786-0 = test system: 786-0
DU-145 = test system: DU-145
EKVX = test system: EKVX
HCC 2998 = test system: HCC 2998
HOP-92 = test system: HOP-92
HT-29 = test system: HT-29
IGROV-1 = test system: IGROV-1
K562 = test system: K562
M14 = test system: M14
MOLT-4 = test system: MOLT-4
NCI-H460 = test system: NCI-H460
NCI-H522 = test system: NCI-H522
NCI/ADR-RES = test system: NCI/ADR-RES
RPMI-8226 = test system: RPMI-8226
RXF 393 = test system: RXF 393
SK-MEL-2 = test system: SK-MEL-2
T47D = test system: T47D
UO-31 = test system: UO-31
HL-60 = test system: HL-60

Measured: GI50

N#CC(Cc1ccccc1Br)N(CCC1=CCCCC1)C(c1ccccc1)c1ccccc1 (stereo unspecified)
inactive: 786-0 > 100 µM | DU-145 > 100 µM | EKVX 51.4 µM | HCC 2998 18.6 µM | HOP-92 29.7 µM | HT-29 32.9 µM | IGROV-1 52.1 µM | K562 44.3 µM | M14 37.9 µM | MOLT-4 72.3 µM | NCI-H460 57.3 µM | NCI-H522 25.9 µM | NCI/ADR-RES > 100 µM | RPMI-8226 31.7 µM | RXF 393 71.6 µM | SK-MEL-2 > 100 µM | T47D 38.3 µM | UO-31 83.2 µM

O=C(Nc1ccc(Cl)cc1)NS(=O)(=O)c1coc2ccccc2c1=O
inactive: 786-0 > 10 µM | DU-145 > 10 µM | EKVX > 10 µM | HCC 2998 > 10 µM | HL-60 > 10 µM | HOP-92 > 10 µM | HT-29 > 10 µM | IGROV-1 > 10 µM | M14 > 10 µM | MOLT-4 > 10 µM | NCI-H460 > 10 µM | NCI-H522 > 10 µM | NCI/ADR-RES > 10 µM | RPMI-8226 > 10 µM | RXF 393 > 10 µM | SK-MEL-2 > 10 µM | T47D > 10 µM

COc1ccc(N2CCN(Cc3c(C(C)=O)[n+]([O-])c4ccccc4[n+]3[O-])CC2)cc1
inactive: 786-0 53.5 µM | DU-145 > 100 µM | EKVX 75.3 µM | HCC 2998 > 100 µM | HL-60 > 100 µM | HOP-92 32.5 µM | HT-29 45.6 µM | IGROV-1 32.4 µM | K562 > 100 µM | M14 45.5 µM | NCI-H460 87.5 µM | NCI-H522 36.1 µM | NCI/ADR-RES 24.5 µM | RPMI-8226 > 100 µM | RXF 393 17 µM | SK-MEL-2 54.2 µM | T47D 57.3 µM | UO-31 64.6 µM

CCOC(=O)[C@@H](NC(=O)OC(C)(C)C)[C@@H](O)C(=O)OCC
inactive: 786-0 > 100 µM | DU-145 > 100 µM | EKVX > 100 µM | HCC 2998 62.8 µM | HL-60 > 100 µM | HOP-92 > 100 µM | HT-29 > 100 µM | IGROV-1 > 100 µM | K562 > 100 µM | M14 > 100 µM | MOLT-4 > 100 µM | NCI-H460 > 100 µM | NCI/ADR-RES > 100 µM | RPMI-8226 > 100 µM | RXF 393 > 100 µM | SK-MEL-2 > 100 µM | T47D > 100 µM | UO-31 > 100 µM

COc1cc2ccnc3c2c(c1O)N(C)C=C3
inactive: 786-0 7.19 µM | DU-145 23.7 µM | EKVX 17.4 µM | HCC 2998 23 µM | HOP-92 21.2 µM | IGROV-1 6.11 µM | K562 4.68 µM | M14 17 µM | MOLT-4 4.26 µM | NCI-H460 24.9 µM | NCI-H522 1.59 µM | NCI/ADR-RES 18.7 µM | RPMI-8226 4.18 µM | RXF 393 14.3 µM | SK-MEL-2 17.7 µM | T47D 7.38 µM | UO-31 7.66 µM

CC1CCCC(C(=O)CC2CC(=O)NC(=O)C2)C1=O (stereo unspecified)
inactive: 786-0 > 100 µM | DU-145 > 100 µM | EKVX > 100 µM | HCC 2998 > 100 µM | HL-60 > 100 µM | HOP-92 > 100 µM | HT-29 > 100 µM | IGROV-1 > 100 µM | K562 > 100 µM | M14 > 100 µM | MOLT-4 > 100 µM | NCI-H460 > 100 µM | NCI/ADR-RES > 100 µM | RPMI-8226 > 100 µM | RXF 393 > 100 µM | SK-MEL-2 > 100 µM | T47D > 100 µM | UO-31 > 100 µM

O=C(/C(Cl)=C/c1ccccc1)c1ccccc1
inactive: 786-0 1.53 µM | DU-145 6.32 µM | EKVX 11.2 µM | HCC 2998 6.68 µM | HOP-92 3.13 µM | HT-29 1.46 µM | K562 2.06 µM | M14 2.28 µM | MOLT-4 2.61 µM | NCI-H460 8.71 µM | NCI-H522 1.58 µM | NCI/ADR-RES 3.55 µM | RPMI-8226 2.33 µM | RXF 393 2.46 µM | SK-MEL-2 13.1 µM | T47D 4.07 µM | UO-31 2.32 µM

N#Cc1cccc2c1Sc1ccccc1N2
inactive: 786-0 30.2 µM | DU-145 40.6 µM | EKVX 19.1 µM | HCC 2998 27 µM | HL-60 27.3 µM | HOP-92 32.3 µM | HT-29 32.7 µM | IGROV-1 45.1 µM | K562 17.4 µM | M14 25.8 µM | MOLT-4 11.5 µM | NCI-H460 32.5 µM | NCI/ADR-RES 31.3 µM | RPMI-8226 27.7 µM | RXF 393 3.7 µM | T47D 19.2 µM | UO-31 27.1 µM

COc1ccc(/N=C2\C(=N/c3ccc(OC)cc3)N(c3ccccc3[N+](=O)[O-])C(=S)N2c2ccc(OC)cc2)cc1
inactive: 786-0 > 100 µM | DU-145 > 100 µM | EKVX 99.3 µM | HCC 2998 > 100 µM | HOP-92 > 100 µM | IGROV-1 > 100 µM | K562 35.5 µM | M14 > 100 µM | MOLT-4 21.8 µM | NCI-H522 96.4 µM | NCI/ADR-RES > 100 µM | RPMI-8226 > 100 µM | RXF 393 23.9 µM | SK-MEL-2 > 100 µM | T47D 26 µM | UO-31 78 µM

CC(CC[C@@H](O)C(C)(C)O)C1[C@@H](O)CC2(C)C3CC(O)C4C(C)(C)[C@@H](OC5OC(CO)C(O)C(O)C5O)CC[C@@]45C[C@@]35CC[C@]12C (stereo partly specified)
inactive: 786-0 > 10 µM | DU-145 > 10 µM | EKVX > 10 µM | HCC 2998 > 10 µM | HL-60 > 10 µM | HOP-92 > 10 µM | HT-29 > 10 µM | IGROV-1 > 10 µM | K562 > 10 µM | M14 > 10 µM | MOLT-4 > 10 µM | NCI-H460 > 10 µM | NCI-H522 > 10 µM | NCI/ADR-RES > 10 µM | RPMI-8226 > 10 µM | RXF 393 > 10 µM | SK-MEL-2 > 10 µM | T47D > 10 µM

[C-]#[N+]C1(C(=O)OCC)CC1
inactive: 786-0 > 100 µM | DU-145 > 100 µM | EKVX > 100 µM | HCC 2998 > 100 µM | HL-60 > 100 µM | HOP-92 > 100 µM | HT-29 > 100 µM | IGROV-1 > 100 µM | K562 > 100 µM | M14 > 100 µM | MOLT-4 > 100 µM | NCI-H460 > 100 µM | NCI-H522 > 100 µM | NCI/ADR-RES > 100 µM | RPMI-8226 > 100 µM | RXF 393 > 100 µM | T47D > 100 µM

Nc1ncnc2c1ncn2-c1ccc([N+](=O)[O-])cn1
inactive: 786-0 > 100 µM | DU-145 > 100 µM | HCC 2998 > 100 µM | HL-60 > 100 µM | HOP-92 > 100 µM | HT-29 > 100 µM | K562 > 10 µM | M14 > 100 µM | NCI-H460 > 100 µM | NCI/ADR-RES > 100 µM | RPMI-8226 > 100 µM | RXF 393 > 100 µM | SK-MEL-2 > 100 µM | T47D > 100 µM | UO-31 > 100 µM
